Our source for the TGI values is PubChem BioAssay (NCI).

Test systems include SK-MEL-2 melanoma; A549 NSCLC; SK-MEL-5 melanoma; SR leukemia; UACC-257 melanoma; CCRF-CEM leukemia; OVCAR-8 ovarian; K-562 leukemia; RPMI-8226 leukemia; DLD-1 colon.
What all share (assay): DTP human tumour cell line panel, 48 h

Where “and” joins values, the source holds several entries; their conditions need not be identical. Equal entries are not always repeated.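 Where inhibition never reached the appropriate level, the endpoint shown equals the highest concentration tested. Otherwise, values were interpolated linearly from a five-concentration, 48-hour dose response in 96-well plates. TGI: total growth inhibition.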

Broadly, the TGI is the concentration giving total growth inhibition. The low end stands for more potent growth arrest, the high end for less potent growth arrest. As to `C=CCNC(=S)N=Nc1c(O)[nH]c2ccc([N+](=O)[O-])cc12`, the TGI in the assay with SK-MEL-2 melanoma was over 100 µM; in the assay on A549 NSCLC, over 100 µM; in the assay on SK-MEL-5 melanoma it was over 100 µM; in the assay with SR leukemia, over 100 µM; in the assay with UACC-257 melanoma it was over 100 µM; with CCRF-CEM leukemia it was 41.5 µM. Besides, the TGI in the assay on OVCAR-8 ovarian, in the assay on K-562 leukemia and in the assay with RPMI-8226 leukemia was over 100 µM in each case.
As to `COc1ccc(S(=O)(=O)N2C(=O)CCC2C(=O)NN)cc1` (stereo not given), the TGI in the assay on SK-MEL-2 melanoma, in the assay on A549 NSCLC, in the assay with SK-MEL-5 melanoma, in the assay with SR leukemia, in the assay with UACC-257 melanoma and in the assay on CCRF-CEM leukemia was over 100 µM throughout. In addition, the TGI in the assay on OVCAR-8 ovarian, in the assay on K-562 leukemia and in the assay on RPMI-8226 leukemia was over 100 µM each time.
Consider `O=C1CC(C(O)(C(F)(F)F)C(F)(F)Cl)CCC1C(O)(C(F)(F)F)C(F)(F)Cl` (stereo not given), for which the TGI in the assay on SK-MEL-2 melanoma, in the assay with A549 NSCLC, in the assay with SK-MEL-5 melanoma, in the assay on SR leukemia, in the assay on UACC-257 melanoma and with CCRF-CEM leukemia was over 10 µM throughout. Further, the TGI in the assay with OVCAR-8 ovarian, in the assay with K-562 leukemia and with RPMI-8226 leukemia was over 10 µM throughout.
With `COC(=O)c1cc2c(cc1CC1Cc3cc4c(cc3C1)CCC4)CCC2`, the TGI with SK-MEL-2 melanoma is 54 µM; with A549 NSCLC, over 100 µM; in the assay with SK-MEL-5 melanoma, over 100 µM; in the assay on SR leukemia, 47.2 µM; in the assay with UACC-257 melanoma it was 80.9 µM; with CCRF-CEM leukemia, 45.3 µM. The TGI is over 100 µM in the assay with OVCAR-8 ovarian, over 100 µM in the assay with K-562 leukemia and 61.4 µM in the assay with RPMI-8226 leukemia.
For the compound `COc1ccc(-c2c3c([nH]c(=S)c2C#N)CC(C)(C)CC3=O)cc1`, the TGI in the assay with SK-MEL-2 melanoma, in the assay on A549 NSCLC, with SK-MEL-5 melanoma, in the assay on SR leukemia, in the assay on UACC-257 melanoma and in the assay with CCRF-CEM leukemia was over 100 µM in each case. The TGI with OVCAR-8 ovarian, in the assay with K-562 leukemia and with RPMI-8226 leukemia was over 100 µM throughout.
On to `CSC(=Nc1ccccc1)N(c1ccccc1)c1nc(=[N+](C)C)ss1`, for which the TGI amounted to 11.7 µM in the assay on SK-MEL-2 melanoma; 33.7 µM in the assay on A549 NSCLC; 5.15 µM in the assay with SK-MEL-5 melanoma; 8.01 µM in the assay on SR leukemia; 4.96 µM with UACC-257 melanoma; 4.48 µM in the assay with CCRF-CEM leukemia. Also, the TGI turned out to be 6.19 µM in the assay on OVCAR-8 ovarian, 2.89 µM in the assay with K-562 leukemia and 3.14 µM with RPMI-8226 leukemia.
Take `COC(C)(C)[C@@H](O)[C@H]1C[C@H](C)[C@@]2(CC[C@]3(C)[C@@H]2CC[C@@H]2[C@@]4(C)CC[C@@H](OC(C)=O)C(C)(C)[C@@H]4C[C@@H](OC4OC(COC(C)=O)C(O)C(O)C4O)[C@]23C)O1` (stereo not given in full): the TGI in the assay with SK-MEL-2 melanoma was 19.7 µM; in the assay on A549 NSCLC, 15.3 µM; in the assay on SK-MEL-5 melanoma, 15.1 µM; with SR leukemia, 5.25 µM; with UACC-257 melanoma, 20.9 µM; in the assay with CCRF-CEM leukemia it was over 37 µM. The results for the TGI with OVCAR-8 ovarian, in the assay with K-562 leukemia and in the assay on RPMI-8226 leukemia were 18.7 µM, 21.3 µM and 5.7 µM, respectively.
For `C/C1=C\CC[C@@]2(C)O[C@@H]2C[C@@H](C2(C)CO2)CC/C(C)=C/CC1` (stereo not given in full), the TGI was 71.8 µM in the assay with SK-MEL-2 melanoma; 36.5 µM with A549 NSCLC; 47.1 µM in the assay with SK-MEL-5 melanoma; over 100 µM in the assay with SR leukemia; over 100 µM in the assay with UACC-257 melanoma; over 100 µM with CCRF-CEM leukemia. Besides, the TGI with OVCAR-8 ovarian was 39.6 µM; with K-562 leukemia, over 100 µM; in the assay with RPMI-8226 leukemia, over 100 µM.
Take `COc1cc2c(cc1OC)[C@H]1CN3CCC[C@H]3C=C1c1ccc(OC)c(O)c1-2`: the TGI is 0.000975 µM with SK-MEL-2 melanoma; 0.0109 µM and 0.0123 µM in the assay with DLD-1 colon; 0.00133 µM in the assay on SK-MEL-5 melanoma; 0.00437 µM in the assay on SR leukemia; 0.00835 µM with UACC-257 melanoma; 0.0376 µM and 0.35 µM in the assay on CCRF-CEM leukemia. The TGI in the assay with OVCAR-8 ovarian was 0.0015 µM and 0.0123 µM; in the assay with RPMI-8226 leukemia, 0.0012 µM.
In the case of `O=C(NCCCN(CCCCN(CCCNC(=O)C(F)(F)F)Cc1ccc2ccccc2c1)Cc1ccc2ccccc2c1)C(F)(F)F`, the concentration for total growth inhibition (TGI) in the assay on SK-MEL-2 melanoma was over 100 µM; in the assay with A549 NSCLC, over 100 µM; in the assay with SK-MEL-5 melanoma, 3.38 µM; with SR leukemia, 7.18 µM; in the assay on UACC-257 melanoma, 4.58 µM; with CCRF-CEM leukemia, over 100 µM. The figures for the TGI with OVCAR-8 ovarian, in the assay with K-562 leukemia and in the assay on RPMI-8226 leukemia were over 100 µM, 7.34 µM and 7.15 µM, respectively.
In the case of `COc1ccc(/C=C2\C[C@H]3[C@@H]4CCC5=C/C(=N/O)CC[C@]5(C)[C@H]4CC[C@]3(C)\C2=N\O)cc1OC`, the TGI with SK-MEL-2 melanoma was 54.5 µM; with A549 NSCLC, over 100 µM; in the assay on SK-MEL-5 melanoma, 14.9 µM; with SR leukemia, over 100 µM; in the assay on UACC-257 melanoma it was over 100 µM; in the assay on CCRF-CEM leukemia, over 100 µM. Moreover, the figures for the TGI in the assay on OVCAR-8 ovarian, in the assay with K-562 leukemia and in the assay with RPMI-8226 leukemia were over 100 µM, over 100 µM and 60.3 µM, respectively.
`C=C1c2cc3c(cc2CC12Cc1cc4c(cc1C2=O)CCC4)CCC3` (stereo not given): the TGI with SK-MEL-2 melanoma, in the assay on A549 NSCLC, in the assay on SK-MEL-5 melanoma, with SR leukemia, with UACC-257 melanoma and in the assay on CCRF-CEM leukemia was over 100 µM each time. Further, the TGI in the assay on OVCAR-8 ovarian, in the assay with K-562 leukemia and in the assay with RPMI-8226 leukemia was over 100 µM in each case.
On to `c1csc(-c2ccc(-c3cccs3)c3nsnc23)c1`, for which the TGI was over 100 µM in the assay with SK-MEL-2 melanoma; over 100 µM in the assay on A549 NSCLC; over 55.5 µM in the assay with SK-MEL-5 melanoma; 39.9 µM with SR leukemia; over 100 µM in the assay with UACC-257 melanoma; 31.5 µM in the assay on CCRF-CEM leukemia. Besides, the TGI is over 93.2 µM with OVCAR-8 ovarian, 37.9 µM in the assay with K-562 leukemia and over 82.4 µM in the assay with RPMI-8226 leukemia.
Regarding `COC(=O)CN1c2nc(C#N)c(C#N)nc2N(CC(=O)OC)c2nc(C#N)c(C#N)nc21`, the TGI was over 100 µM with SK-MEL-2 melanoma; over 82.8 µM in the assay with A549 NSCLC; over 53.8 µM in the assay on SK-MEL-5 melanoma; 6.66 µM in the assay on SR leukemia; over 100 µM in the assay with UACC-257 melanoma; over 24.3 µM in the assay with CCRF-CEM leukemia. In addition, the TGI in the assay with OVCAR-8 ovarian was over 22.3 µM; in the assay on K-562 leukemia, over 33.9 µM; in the assay with RPMI-8226 leukemia it was over 100 µM.
